Measured values reported in the supplement of paper PMC10721915.

What was measured:
Test in all cases: relative cell growth vs untreated control (GI, NCI-DTP normalisation with time-zero) (fraction of control growth); higher = more growth / less inhibition
Details in all cases: treatment time: 120 h
MHHES1 = test system: MHHES1
Description: (§1)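 Cancer cell lines in 96-well plates were treated 48 h after seeding with M4076 (ATM inhibitor) and berzosertib (ATR inhibitor), alone or mixed, in 4-fold dilutions for 120 h. Protein was read by sulforhodamine B staining, background-subtracted and normalised NCI-DTP style to untreated control growth. Rows with one concentration equal to 0 are monotherapy.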

MIAPACA2 = test system: MIAPACA2
Description: as §1

COLO205 = test system: COLO205
Description: as §1

MDAMB436 = test system: MDAMB436
Description: as §1

MV411 = test system: MV411
Description: as §1

A549 = test system: A549
Description: as §1

WSUNHL = test system: WSUNHL
Description: as §1

NCIH460 = test system: NCIH460
Description: as §1

HEPG2 = test system: HEPG2
Description: as §1

DU145 = test system: DU145
Description: as §1

COc1cc2ncc3c(c2cc1-c1cn(C)nc1C)n(-c1c(F)cncc1OC)c(=O)n3C [M4076] + CNCc1ccc(-c2cc(-c3nc(-c4ccc(S(=O)(=O)C(C)C)cc4)cnc3N)on2)cc1 [berzosertib]
relative cell growth
Details | A549 | COLO205 | DU145 | HEPG2 | MDAMB436 | MHHES1 | MIAPACA2 | MV411 | NCIH460 | WSUNHL
concentration of first compound 0.0195 µM, concentration of partner 0 M | 1.18 | 1.18 | 1.09 | 1.41 | 1.1 | 1.19 | 1.08 | 1.23 | 1.14 | 1.22
concentration of first compound 0.0195 µM, concentration of partner 0.2 µM | 0.64 | 0.641 | 1.05 | 0.0154 | 0.856 | 0.662 | 0.643 | 1.18 | 0.607 | 1.48
concentration of first compound 0.0781 µM, concentration of partner 0 M | 1.22 | 1.15 | 1.12 | 1.4 | 1.15 | 1.15 | 1.17 | 1.28 | 1.16 | 1.26
concentration of first compound 0.0781 µM, concentration of partner 0.2 µM | 0.574 | 0.668 | 1.09 | 0.000629 | 0.625 | 0.505 | 0.542 | 1.09 | 0.678 | 1.47
concentration of first compound 0.313 µM, concentration of partner 0 M | 1.16 | 1.12 | 1.11 | 1.23 | 0.941 | 1.05 | 1.03 | 1.24 | 1.14 | 0.983
concentration of first compound 0.313 µM, concentration of partner 0.2 µM | 0.267 | 0.373 | 0.774 | -0.027 | 0.374 | 0.17 | 0.269 | 0.887 | 0.354 | 1.07
concentration of first compound 1 µM, concentration of partner 0 M | 0.924 | 0.959 | 0.98 | 0.829 | 0.753 | 0.809 | 1.08 | 0.903 | 0.972 | 0.649
concentration of first compound 1 µM, concentration of partner 0.0195 µM | 0.89 | 0.916 | 0.893 | 0.596 | 0.817 | 0.753 | 0.891 | 1.22 | 0.969 | 0.896
concentration of first compound 1 µM, concentration of partner 0.0781 µM | 0.431 | 0.37 | 0.862 | 0.0729 | 0.574 | 0.224 | 0.439 | 1.18 | 0.79 | 0.716
concentration of first compound 1 µM, concentration of partner 0.313 µM | 0.0877 | 0.105 | 0.133 | -0.0203 | 0.148 | 0.0239 | 0.061 | 0.312 | 0.0691 | -0.00911
concentration of first compound 1 µM, concentration of partner 1.25 µM | 0.00284 | 0.0405 | -0.0604 | -0.023 | -0.0222 | -0.0145 | 0.0345 | -0.0158 | -0.00904 | -0.0958
concentration of first compound 1 µM, concentration of partner 5 µM | 0.00285 | -0.0244 | -0.0855 | -0.0325 | -0.02 | -0.0266 | -0.0126 | -0.0221 | -0.0222 | -0.11
concentration of first compound 1.25 µM, concentration of partner 0 M | 1.09 | 1.02 | 1.05 | 1.16 | 0.84 | 0.97 | 1.18 | 1.09 | 1.11 | 0.572
concentration of first compound 1.25 µM, concentration of partner 0.2 µM | 0.153 | 0.208 | 0.496 | -0.0218 | 0.292 | 0.0696 | 0.126 | 0.746 | 0.199 | 0.294
concentration of first compound 5 µM, concentration of partner 0 M | 0.955 | 0.892 | 0.872 | 0.843 | 0.684 | 0.65 | 1.09 | 0.708 | 1.06 | 0.166
concentration of first compound 5 µM, concentration of partner 0.2 µM | 0.11 | 0.172 | 0.307 | -0.0276 | 0.206 | 0.05 | 0.157 | 0.603 | 0.203 | 0.0497

CNCc1ccc(-c2cc(-c3nc(-c4ccc(S(=O)(=O)C(C)C)cc4)cnc3N)on2)cc1 [berzosertib] + COc1cc2ncc3c(c2cc1-c1cn(C)nc1C)n(-c1c(F)cncc1OC)c(=O)n3C [M4076]
relative cell growth, concentration of partner 0 M
Details | A549 | COLO205 | DU145 | HEPG2 | MDAMB436 | MHHES1 | MIAPACA2 | MV411 | NCIH460 | WSUNHL
concentration of first compound 0.0195 µM | 1.22 | 1.1 | 1.08 | 1.09 | 1.03 | 1.26 | 1.06 | 1.25 | 1.12 | 1.44
concentration of first compound 0.0781 µM | 0.999 | 0.981 | 1.13 | 0.33 | 1.13 | 1.21 | 0.974 | 1.32 | 1.09 | 1.68
concentration of first compound 0.2 µM | 0.464 | 0.622 | 1.03 | 0.0562 | 0.673 | 0.599 | 0.661 | 0.778 | 0.607 | 1.18
concentration of first compound 0.313 µM | 0.294 | 0.353 | 0.825 | 0.0114 | 0.386 | 0.436 | 0.235 | 0.429 | 0.357 | 0.779
concentration of first compound 1.25 µM | 0.0316 | 0.114 | -0.0103 | -0.033 | 0.0232 | 0.0564 | 0.0129 | -0.0241 | 0.0867 | -0.0504
concentration of first compound 5 µM | -0.00795 | 0.00456 | -0.0587 | -0.0501 | -0.0352 | -0.0244 | -0.0366 | -0.0294 | 0.0406 | -0.0908
